Usually IC50 stands for the concentration at which inhibition is half-maximal.

T1 sequence (P25106 whole entry): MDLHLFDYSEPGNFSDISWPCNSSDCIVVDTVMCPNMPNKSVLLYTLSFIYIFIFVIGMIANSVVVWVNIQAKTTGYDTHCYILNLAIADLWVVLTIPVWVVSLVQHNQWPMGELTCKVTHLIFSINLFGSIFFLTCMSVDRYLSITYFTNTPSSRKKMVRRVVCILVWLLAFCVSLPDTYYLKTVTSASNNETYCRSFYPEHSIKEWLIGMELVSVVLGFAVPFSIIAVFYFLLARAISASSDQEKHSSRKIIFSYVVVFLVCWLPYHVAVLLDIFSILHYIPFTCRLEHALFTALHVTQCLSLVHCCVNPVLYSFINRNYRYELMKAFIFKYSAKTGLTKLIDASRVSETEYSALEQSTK

The assay has as its target T1, CXCR7 (Homo sapiens, UniProt P25106).
T1 construct: expressed in transfected cells; host or cells: CHO cells (CHO-CXCR7), transgenes maintained with Hygromycin B and G418
Nature of the assay: CXCR7 β-arrestin recruitment assay in CHO-CXCR7 cells (ProLink/EA β-galactosidase complementation), induced by human SDF-1a. Type of assay: cell-based. The note with it: assay buffer, SDF-1a at EC50 concentration. The method, then:
CXCR7 is fused in frame with a small enzyme donor fragment ProLink and co-expressed in CHO cells stably expressing a fusion protein of β-arrestin and the larger, N-terminal deletion mutant of β-galactosidase (called enzyme acceptor or EA). Activation of the CXCR7 stimulates binding of β-arrestin to the ProLink-tagged CXCR7 and forces complementation of the two enzyme fragments, resulting in the formation of an active β-galactosidase enzyme. The β-galactosidase enzyme activity is measured with a substrate that generates fluorescence.
CHO-CXCR7 cells (0.22×10^6/mL) were cultured in growth medium (Ham's F-12 medium with 10% fetal bovine serum (FBS)), Hygromycin B (200 ug/mL) and G418 (250 ug/mL) were used to maintain the transgenes. The day before the assay, the cells were detached from culture dishes with 0.25% trypsin-EDTA (Corning, Catalog No. 25-053-CI), plated into 96 well plate (2.2×10^5 cells/mL, 100 μL/well) and incubated overnight at 37° C. with 5% CO2. On the day of the assay, cell culture medium was removed and 100 uL of assay buffer (PBS or FBS) was added to each well. 1 μL of compound that were serially diluted in DMSO was added to each well. 5 μL of human SDF-la (Pepro Tech, Catalog No. 300-28A, at EC50 concentration pre-determined on the same day) was then added and mixed to induce CXCR7-mediated β-arrestin recruitment. The plates were incubated for 1.5 hours at 37° C. The assay buffer was removed, 100 μL substrate solution was added and the reaction was carried out at 37° C. for 30 minutes. The substrate solution was prepared by mixing 100 mL Phosphate Buffer (1M, Sigma, Catalog No. P3619-1GA), 100 mL 10% Triton X 100 (Sigma, Catalog No. T8787.), 5 mL MgCl2 (1M, Sigma, Catalog No. M1028), 1.5 mL, β-mercaptoethanol (Gibco, Catalog No. 21985-023.). 3-carboxyumbelliferyl β-D-galactopyranoside (ThermoFisher Scientific, Catalo No. F2905) was added at 0.4 mM right before use. The reaction was then stopped by adding 50 μL of Stop Solution (2.1% w/v Na2CO3) to each well. Fluorescence intensity was measured with a FlexStation 3 microplate reader (Molecular Devices) with the following setting—excitation: 360 nm, emission: 465 nm, manual Gain: 55. IC50 values were calculated with GraphPad Prism using 3 parameter nonlinear regression.
(In general: Activated receptors often draw arrestin, which recruitment assays turn into a signal.)
For `CC(C)(NC(=O)CC1(NC(=O)c2cc(-c3ccc(F)cc3F)sn2)CN([C@H]2CC[C@@](C)(O)CC2)C1)c1cccc(Cl)c1` [Example 1.043], the IC50 fell in the range of 100 to 1000 nM.
In the case of `CC(C)(NC(=O)CC1(NC(=O)c2cc(-c3ccc(F)cc3F)sn2)CN([C@H]2CC[C@](C)(O)CC2)C1)c1cccc(Cl)c1` [Example 1.044], the IC50 lay within 100 to 1000 nM.
The same measure for `CC(C)(NC(=O)CC1(NC(=O)c2ncc(-c3ccc(F)cc3F)s2)CN([C@H]2CC[C@@](C)(O)CC2)C1)c1cccc(Cl)c1` [Example 1.045]: 5 to 100 nM.
The same measure for `CC(C)(NC(=O)CC1(NC(=O)c2ncc(-c3ccc(F)cc3F)s2)CN([C@H]2CC[C@](C)(O)CC2)C1)c1cccc(Cl)c1` [Example 1.046]: 5 to 100 nM; for `CC(C)(NC(=O)CC1(NC(=O)c2cc(-c3ccc(F)cc3F)no2)CN([C@H]2CC[C@@](C)(O)CC2)C1)c1cccc(Cl)c1` [Example 1.047]: 5 to 100 nM; for `CC(C)(NC(=O)CC1(NC(=O)c2cc(-c3ccc(F)cc3F)no2)CN([C@H]2CC[C@](C)(O)CC2)C1)c1cccc(Cl)c1` [Example 1.048]: less than 5 nM.
To `CC(C)(NC(=O)CC1(NC(=O)c2cnn(-c3ccc(F)cc3F)c2)CN([C@H]2CC[C@](C)(O)CC2)C1)c1cccc(Cl)c1` [Example 1.049] belongs 1000 to 20000 nM; to `CC(C)(NC(=O)CC1(NC(=O)c2csc(-c3ccc(F)cc3F)n2)CN([C@H]2CC[C@@](C)(O)CC2)C1)c1cccc(Cl)c1` [Example 1.050], 1000 to 20000 nM.
`CC(C)(NC(=O)CC1(NC(=O)c2csc(-c3ccc(F)cc3F)n2)CN([C@H]2CC[C@](C)(O)CC2)C1)c1cccc(Cl)c1` [Example 1.051] showed an IC50 of 1000 to 20000 nM.
Take `Cc1cc(C)nc(C(C)(C)NC(=O)CC2(NC(=O)c3cc(-c4ccc(F)cc4F)n[nH]3)CN([C@H]3CC[C@@](C)(O)CC3)C2)n1` [Example 1.052]: the IC50 lay in the range of 1000 to 20000 nM.
Regarding `CC(C)(NC(=O)CC1(NC(=O)c2cc(-c3ccc(F)cc3F)n[nH]2)CN([C@H]2CC[C@@](C)(O)CC2)C1)c1cccc(Cl)c1` [Example 1.053], the IC50 lay within 1000 to 20000 nM.
Consider `CC(C)(NC(=O)CC1(NC(=O)c2cc(-c3ccc(F)cc3F)n[nH]2)CN([C@H]2CC[C@](C)(O)CC2)C1)c1cccc(Cl)c1` [Example 1.054], for which the IC50 fell in the range of 1000 to 20000 nM.
To `Cc1cc(C)nc(C(C)(C)NC(=O)CC2(NC(=O)c3nnc(-c4ccc(F)cc4F)o3)CN([C@H]3CC[C@](C)(O)CC3)C2)n1` [Example 1.055] belongs 100 to 1000 nM; to `CC(C)(NC(=O)CC1(NC(=O)c2ccn(-c3ccc(F)cc3F)n2)CN([C@H]2CC[C@](C)(O)CC2)C1)c1cccc(Cl)c1` [Example 1.056], 1000 to 20000 nM; to `Cc1cc(C)nc(C(C)(C)NC(=O)CC2(NC(=O)c3nnc(-c4ccc(F)cc4F)o3)CN([C@H]3CC[C@@](C)(O)CC3)C2)n1` [Example 1.057], 100 to 1000 nM.
With `Cn1nc(-c2ccc(F)cc2F)cc1C(=O)NC1(CC(=O)NC(C)(C)c2cccc(Cl)c2)CN([C@H]2CC[C@@](C)(O)CC2)C1` [Example 1.058], the IC50 lay within 1000 to 20000 nM.
To `Cn1nc(-c2ccc(F)cc2F)cc1C(=O)NC1(CC(=O)NC(C)(C)c2cccc(Cl)c2)CN([C@H]2CC[C@](C)(O)CC2)C1` [Example 1.059] belongs 1000 to 20000 nM.
To `Cc1cc(C)nc(C(C)(C)NC(=O)CC2(NC(=O)c3nnc(-c4ccc(F)cc4F)s3)CN([C@H]3CC[C@@](C)(O)CC3)C2)n1` [Example 1.060] belongs 5 to 100 nM.
Turning to `Cc1cc(C)nc(C(C)(C)NC(=O)CC2(NC(=O)c3nnc(-c4ccc(F)cc4F)s3)CN([C@H]3CC[C@](C)(O)CC3)C2)n1` [Example 1.061], the IC50 is less than 5 nM.
Regarding `CC(C)(NC(=O)CC1(NC(=O)c2nnc(-c3ccc(F)cc3F)s2)CN([C@H]2CC[C@@](C)(O)CC2)C1)c1ccccn1` [Example 1.062], the IC50 lay within 5 to 100 nM.
The same measure for `CC(C)(NC(=O)CC1(NC(=O)c2nnc(-c3ccc(F)cc3F)s2)CN([C@H]2CC[C@](C)(O)CC2)C1)c1ccccn1` [Example 1.063]: 5 to 100 nM; for `CC(C)(NC(=O)CC1(NC(=O)c2nnc(-c3ccc(F)cc3F)s2)CN([C@H]2CC[C@@](C)(O)CC2)C1)c1cccc(Cl)c1` [Example 1.064]: less than 5 nM; for `CC(C)(NC(=O)CC1(NC(=O)c2cn(-c3ccc(F)cc3F)nn2)CN([C@H]2CC[C@@](C)(O)CC2)C1)c1cccc(Cl)c1` [Example 1.066]: 5 to 100 nM.
Compound `CC(C)(NC(=O)CC1(NC(=O)c2cn(-c3ccc(F)cc3F)nn2)CN([C@H]2CC[C@](C)(O)CC2)C1)c1cccc(Cl)c1` [Example 1.067] came in with an IC50 of 5 to 100 nM.
The same measure for `CC(C)(NC(=O)CC1(NC(=O)c2cnc(-c3ccc(F)cc3F)s2)CN([C@H]2CC[C@@](C)(O)CC2)C1)c1cccc(Cl)c1` [Example 1.068]: 5 to 100 nM.
The same measure for `CC(C)(NC(=O)CC1(NC(=O)c2cnc(-c3ccc(F)cc3F)s2)CN([C@H]2CC[C@](C)(O)CC2)C1)c1cccc(Cl)c1` [Example 1.069]: 5 to 100 nM; for `Cc1cc(C)nc(C(C)(C)NC(=O)CC2(NC(=O)c3nnc(-c4ccc(F)cc4F)s3)CN(C3CCCCC3)C2)n1` [Example 1.070]: less than 5 nM; for `Cc1cc(C)nc(C(C)(C)NC(=O)CC2(NC(=O)c3cn(-c4ccc(F)cc4F)nn3)CN(C3CCCCC3)C2)n1` [Example 1.071]: 5 to 100 nM.
The same measure for `CC(C)(NC(=O)CC1(NC(=O)c2nnc(-c3ccc(F)cc3F)s2)CN(C2CCCCC2)C1)c1ccccn1` [Example 1.072]: less than 5 nM; for `CC(C)(NC(=O)CC1(NC(=O)c2nnc(-c3ccc(F)cc3F)s2)CN(C2CCCCC2)C1)c1cccc(Cl)c1` [Example 1.073]: less than 5 nM.
In turn, `Cc1cc(C(C)(C)NC(=O)CC2(NC(=O)c3cn(-c4ccc(F)cc4F)nn3)CN(C3CCCCC3)C2)ccn1` [Example 1.074] had an IC50 of 5 to 100 nM.
To `CC(C)(NC(=O)CC1(NC(=O)c2cn(-c3ccc(F)cc3F)nn2)CN(C2CCCCC2)C1)c1ccccn1` [Example 1.075] belongs 5 to 100 nM.
The same measure for `CC(C)(NC(=O)CC1(NC(=O)c2cn(-c3ccc(F)cc3F)nn2)CN(C2CCCCC2)C1)c1cccc(Cl)c1` [Example 1.076]: 5 to 100 nM; for `CC(C)CN1CC(CC(=O)NC(C)(C)c2ccnc3[nH]ccc23)(NC(=O)c2cc(-c3ccc(F)cc3F)on2)C1` [Example 1.077]: less than 5 nM.
The same measure for `CC(C)(NC(=O)CC1(NC(=O)c2noc(-c3ccc(F)cc3F)n2)CN([C@H]2CC[C@](C)(O)CC2)C1)c1ccccc1` [Example 1.078]: 100 to 1000 nM; for `Cc1cc(C(C)(C)NC(=O)CC2(NC(=O)c3cc(-c4ccc(F)cc4F)on3)CN([C@H]3CC[C@](C)(O)CC3)C2)nc(C)n1` [Example 1.079]: 5 to 100 nM; for `CC(C)(NC(=O)CC1(NC(=O)c2cn(-c3ccc(F)cc3F)nn2)CN([C@H]2CC[C@](C)(O)CC2)C1)c1ccccc1` [Example 1.081]: 5 to 100 nM.
In turn, `CC(C)(NC(=O)CC1(NC(=O)c2cc(-c3ccc(F)cc3F)on2)CN(C2CCCCC2)C1)c1ccnc2[nH]ccc12` [Example 1.082] returned an IC50 of less than 5 nM.
To `Cc1cc(Cl)cc(C(C)(C)NC(=O)CC2(NC(=O)c3cc(-c4ccc(F)cc4F)on3)CN([C@H]3CC[C@@](C)(O)CC3)C2)c1` [Example 1.083] belongs less than 5 nM; to `CC(C)(NC(=O)CC1(NC(=O)c2cn(-c3ccc(F)cc3)nn2)CN([C@H]2CC[C@](C)(O)CC2)C1)c1ccccc1` [Example 1.084], 100 to 1000 nM; to `CC(C)(NC(=O)CC1(NC(=O)c2cc(-c3ccc(F)cc3F)on2)CN([C@H]2CC[C@@](C)(O)CC2)C1)c1cc(Cl)ccc1Cl` [Example 1.085], less than 5 nM.
Regarding `CC(C)(NC(=O)CC1(NC(=O)c2cc(-c3ccc(F)cc3F)on2)CN([C@H]2CC[C@@](C)(O)CC2)C1)c1cc(Cl)cc(Cl)c1` [Example 1.086], the 50% inhibitory concentration (IC50) was less than 5 nM.
Compound `CC(C)(NC(=O)CC1(NC(=O)c2cc(-c3ccc(F)cc3F)on2)CN([C@H]2CC[C@](C)(O)CC2)C1)c1cccc2[nH]ncc12` [Example 1.087] displayed an IC50 of 1000 to 20000 nM.
The same measure for `CC(C)(NC(=O)CC1(NC(=O)c2cc(-c3ccc(F)cc3F)on2)CN([C@H]2CC[C@](C)(O)CC2)C1)c1cc(Cl)ccc1Cl` [Example 1.088]: less than 5 nM; for `CC(C)(NC(=O)CC1(NC(=O)c2cc(-c3ccc(F)cc3)on2)CN([C@H]2CC[C@@](C)(O)CC2)C1)c1ccccc1` [Example 1.089]: 5 to 100 nM.

The values above are taken from patent US12448373B2, “Azetidinyl-acetamides as CXCR7 inhibitors” (CHEMOCENTRYX, INC., priority 2021, dated 2025).
